This is an account of results in US10624278B2, “Cultivation method for the rapid propagation of Davidia involucrata winter buds” (Mianyang Teachers' College, priority 2017, dated 2020).

Common to all, as to type: in vivo
For data set [1], the system named is Davidia involucrata winter buds. Kind of data set: disinfecting and sterilizing of the winter buds. The procedure: disinfecting and sterilizing of the winter buds: immersing the plurality of winter buds collected in the field into a detergent solution with a concentration of […] for 2 minutes, gently cleaning the bud scales using a soft brush, rinsing for 2 hours with running water, and then immersing the winter buds using the 0.1% mercuric chloride solution for 20 minutes on a clean bench, rinsing with sterile water for more than 5 times, blotting up the water on the surface of the explants with sterile filter paper, stripping up all the scales of the winter buds using a tweezer to obtain the buds, treating with 75% ethanol and mercuric chloride solution or treating with mercuric chloride solution only. Wherein each treatment is inoculated into 30 bottles and 2 explants in each bottle. The specific progress is as follows: […]

Data set [2] deals with Davidia involucrata saplings. Kind of data set: cultivating the strong seedlings. Also on record: unit not given here. Particulars: for K1: mean average height at level 1 of the factor (GA3 0.5, NAA 0.5, 6-BA 0.2); for K2: mean average height at level 2 of the factor (GA3 1.0, NAA 1.0, 6-BA 0.6); for K3: mean average height at level 3 of the factor (GA3 1.5, NAA 1.5, 6-BA 1.0); for R: range of K values of the factor, average height. The procedure:
inoculating the plurality of Davidia involucrata saplings obtained in step (4) in nine groups of WPM medium (See Table 8) containing different concentrations of NAA, 6-BA and GA3 at the temperature of 24±1° C. and illuminating for 10 hours per day at 2000 1× to cultivate the plurality of Davidia involucrata saplings obtained in step (4) for 36 days. The amount of AC added for each group of WPM medium is 1.0 g/L. Calculating the average height of the saplings (See Table 9).

Data set [3] deals with Davidia involucrata saplings. Nature of the data set: rooting cultivation (orthogonal experiment). Particulars: for K1: mean rooting ratio at level 1 of the factor (¼MS, IBA 1.0, 6-BA 0, AC 0.5); for K2: mean rooting ratio at level 2 of the factor (WPM, IBA 2.0, 6-BA 1.0, AC 1.0); for K3: mean rooting ratio at level 3 of the factor (White, IBA 3.0, 6-BA 1.5, AC 1.5); for R: range of K values of the factor, rooting ratio. Also on record: unit not given here. How it is done:
inoculating the plurality of Davidia involucrata saplings in good condition obtained in step (5) in the White, WPM and 1/4 MS medium (See Table 10) containing different concentrations of IBA, 6-BA and AC at the temperature of 24±1° C. and illuminating for 10 hours per day at 2000 1× to cultivate the plurality of Davidia involucrata saplings in good condition obtained in step (5) until rooting. Analyzing the rooting results (See Table 11).

The mark [4] stands for this setting: Disposal 1: mercuric chloride only, treating time 4 min.
Setting [5] is: Disposal 2: mercuric chloride only, treating time 5 min.
The mark [6] stands for this setting: Disposal 3: mercuric chloride only, treating time 6 min.
Where [7] appears, read: Disposal 4: mercuric chloride only, treating time 7 min.
[8] abbreviates: Disposal 5: mercuric chloride only, treating time 8 min.

In the case of `[Cl][Hg][Cl]` [0.01% mercuric chloride solution, mercuric chloride], the “Death rate (%)” value came out at 3% in data set [1] (setting [4]); 5% in data set [1] (setting [5]); 6% in data set [1] (setting [6]); 36% in data set [1] (setting [7]); 45% in data set [1] (setting [8]). Further, the “Pollution rate (%)” value was 38% in data set [1] (setting [4]); 27.2% in data set [1] (setting [5]); 18% in data set [1] (setting [6]); 16% in data set [1] (setting [7]); 10% in data set [1] (setting [8]).

In data set [2], `c1ccc(CNc2ncnc3[nH]cnc23)cc1` [6-BA] yielded a K1 of 1.820, a K2 of 1.697, a K3 of 1.897 and an R of 0.200. In data set [3], the K1 was found to be 48.340, the K2 came out at 67.907, the K3 was determined as 57.150 and the R was determined as 19.567.

Regarding `C=C1C[C@]23C[C@@]1(O)CC[C@H]2[C@@]12C=C[C@H](O)[C@@](C)(C(=O)O1)[C@H]2[C@@H]3C(=O)O` [GA3], in data set [2], the K1 was found to be 1.663, the K2 was determined as 2.037, the K3 is listed as 1.713 and the R was found to be 0.374.

For the molecule `O=C(O)CCCc1c[nH]c2ccccc12` [IBA], in data set [3], the K1 came to 55.663, the K2 is 62.337, the K3 worked out at 55.397 and the R turned out to be 6.940.

On to `O=C(O)Cc1cccc2ccccc12` [NAA], for which, in data set [2], the K1 is recorded as 1.537, the K2 amounted to 2.067, the K3 was 1.810 and the R is 0.530.
